We go through 11 molecules from PubChem BioAssay (NCI).

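Tested at 5 concentrations; 48 h exposure; 96-well plates; endpoints linearly interpolated, else capped at highest concentration. GI50: concentration for 50% inhibition of growth. At the TGI there is no net growth.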 Some results are limits rather than exact numbers.

Some test systems named below: SK-MEL-28 melanoma; 786-0 renal; SF-539 CNS; CCRF-CEM leukemia; NCI-H226 lung; MDA-MB-231 breast; MOLT-4 leukemia; M14 melanoma; HCT-15 colon.
What all share (assay): NCI tumour cell line growth inhibition, 48 h

Consider `Cn1c(COC(=O)NCCn2ccnc2)nc2c(N3CCOCC3)nc(-c3ccccc3)nc21`, for which the GI50 in the assay on SK-MEL-28 melanoma is 1.33 µM; with 786-0 renal, 0.72 µM; in the assay with SF-539 CNS, 1.17 µM; in the assay with CCRF-CEM leukemia, 0.254 µM; with NCI-H226 lung, 1.72 µM; with MDA-MB-231 breast it was 1.06 µM. Besides, the GI50 in the assay on MOLT-4 leukemia was 0.441 µM; in the assay with M14 melanoma it was 0.561 µM; in the assay on HCT-15 colon, 0.193 µM. The TGI turned out to be 2.62 µM in the assay with SK-MEL-28 melanoma; 2.1 µM with 786-0 renal; 2.4 µM with SF-539 CNS; 1.44 µM in the assay on CCRF-CEM leukemia; 3.6 µM with NCI-H226 lung; 2.34 µM in the assay on MDA-MB-231 breast. Also, the TGI with MOLT-4 leukemia turned out to be 2.41 µM; in the assay with M14 melanoma, 1.92 µM; in the assay with HCT-15 colon, 0.484 µM.

For `Cc1nnc2n1N=C(c1ccccc1)C(c1ccccc1)S2` (stereo not drawn), the TGI was > 100 µM with 786-0 renal; 72.4 µM with SF-539 CNS; 77.1 µM with CCRF-CEM leukemia; > 100 µM in the assay on MOLT-4 leukemia; 46.5 µM in the assay with M14 melanoma; > 100 µM with HCT-15 colon.

In the case of `NCCO/C=C/C(N)C(=O)O` (stereo not drawn), the TGI in the assay on SK-MEL-28 melanoma, in the assay with 786-0 renal, with SF-539 CNS, in the assay with CCRF-CEM leukemia, in the assay with NCI-H226 lung and with MDA-MB-231 breast was > 100 µM in each case. Moreover, the TGI in the assay with M14 melanoma and in the assay on HCT-15 colon was > 100 µM in each case.

For `Cc1cc2c(c(C(=O)O)c1C)-c1cccc(Cl)c1C2=O`, the TGI with SK-MEL-28 melanoma, with 786-0 renal, with CCRF-CEM leukemia, in the assay with NCI-H226 lung, with MOLT-4 leukemia and in the assay with M14 melanoma was > 100 µM in each case. Besides, the TGI in the assay with HCT-15 colon is > 100 µM.

As to `CCC[CH2][Sn-]([CH2]CCC)([CH2]CCC)[O]C(=O)C(C)C`, the GI50 in the assay on SK-MEL-28 melanoma is 0.182 µM; with 786-0 renal, 0.109 µM; with SF-539 CNS, 0.157 µM; with NCI-H226 lung, 0.161 µM; in the assay with MDA-MB-231 breast it was 0.103 µM; in the assay on MOLT-4 leukemia it was 0.102 µM. For the same molecule, the GI50 in the assay on M14 melanoma was 0.109 µM; with HCT-15 colon, 0.117 µM. Besides, the TGI came to 0.329 µM with SK-MEL-28 melanoma; 0.228 µM with 786-0 renal; 0.296 µM in the assay on SF-539 CNS; 0.34 µM in the assay with NCI-H226 lung; 0.227 µM with MDA-MB-231 breast; 0.348 µM with MOLT-4 leukemia. The TGI in the assay with M14 melanoma amounted to 0.23 µM; in the assay with HCT-15 colon, 0.249 µM.

With `O=c1c(Cc2ccc3c(c2)OCO3)nnc2sc(-c3cc(F)c(Cl)cc3Cl)nn12`, the GI50 in the assay on SK-MEL-28 melanoma is 32.2 µM; with 786-0 renal, 17.2 µM; with CCRF-CEM leukemia, 33.9 µM; with NCI-H226 lung, 85.6 µM; in the assay with MDA-MB-231 breast it was 44.9 µM; with MOLT-4 leukemia, 36 µM. The GI50 in the assay with M14 melanoma is > 100 µM; in the assay with HCT-15 colon, 70.6 µM. For the same molecule, the TGI with SK-MEL-28 melanoma, with 786-0 renal, with CCRF-CEM leukemia, in the assay on NCI-H226 lung, in the assay with MDA-MB-231 breast and with MOLT-4 leukemia was > 100 µM throughout. The TGI with M14 melanoma and with HCT-15 colon was > 100 µM each time.

For the molecule `Cc1ccc(C2=CC(=O)c3ccccc3C2=O)n1-c1ccccc1`, the TGI was > 100 µM with SK-MEL-28 melanoma; > 100 µM in the assay on 786-0 renal; > 100 µM with SF-539 CNS; 84.5 µM with CCRF-CEM leukemia; 84.8 µM in the assay with NCI-H226 lung; 98.5 µM in the assay with MOLT-4 leukemia. In the assay with M14 melanoma, the TGI was > 100 µM.

`Cc1cc(Cl)ccc1NC(=O)CCCC(=O)C1C/C(=N/O)CC/C1=N\O` (stereo not drawn): the TGI in the assay on SK-MEL-28 melanoma, in the assay on 786-0 renal, in the assay with SF-539 CNS, in the assay on CCRF-CEM leukemia, in the assay on NCI-H226 lung and in the assay with MOLT-4 leukemia was > 100 µM throughout. Further, the TGI in the assay on M14 melanoma and in the assay on HCT-15 colon was > 100 µM throughout.

In the case of `N/N=C(/Cc1ccccc1)NNO`, the TGI in the assay on SK-MEL-28 melanoma, in the assay on 786-0 renal, in the assay on SF-539 CNS, in the assay with CCRF-CEM leukemia, with NCI-H226 lung and with MOLT-4 leukemia was > 100 µM throughout. Moreover, the TGI with M14 melanoma and in the assay with HCT-15 colon was > 100 µM in each case.

For the molecule `Cc1cccc(C)c1NC(=O)C(=O)Cc1nc2ccccc2s1`, the TGI with SK-MEL-28 melanoma, with 786-0 renal, with SF-539 CNS, in the assay on CCRF-CEM leukemia, in the assay on NCI-H226 lung and with M14 melanoma was > 100 µM each time. The TGI in the assay with HCT-15 colon was > 100 µM.

Regarding `C1=CC(=P(c2ccccc2)(c2ccccc2)c2ccccc2)C=C1`, the TGI turned out to be 19.6 µM in the assay with SK-MEL-28 melanoma; 28.8 µM with 786-0 renal; 29.1 µM with SF-539 CNS; 13.4 µM with CCRF-CEM leukemia; 23.4 µM in the assay on MOLT-4 leukemia; 24.3 µM in the assay with M14 melanoma. In addition, the TGI in the assay with HCT-15 colon was > 100 µM.
